The text below walks through data of ChEMBL document CHEMBL1147894, “Amphiphilic polyether branched molecules to increase the circulation time of cationic particles” (Bioorg Med Chem, 2007).

For series [1], the species on record is Mus musculus. Briefly: Biodistribution in C57BL/6 mouse blood after 30 mins. Format: ADME, organism-based. The following applies: in vivo, 0.5 h.
Series [2] relates to B16. Briefly: Decrease in transfection efficacy in […] B16 cells assessed by luciferase assay. In kind it is functional, cell-based.

Active and inactive are the calls of the source. The calls are words filed in the database; no cut-off is given here.

As for `CCCCCCCCCCCCCCN(CCCCCCCCCCCCCC)C(=O)CNC(=O)CNCCCN(CCCN)CCCN.Cl.Cl.Cl.Cl`, the Activity in series [1] amounted to 2.7%. On to `CCCCCCCCCCCCCCCCCCN(CCCCCCCCCCCCCCCCCC)C(=O)CNC(=O)CNC(=O)CNC(=O)OCC(COC(CO)CO)COC(CO)CO`, for which the outcome in series [2] was Active. Besides, in series [1], the Activity is 8%.
